Experimental data: patent US20230147835A1, “METHODS OF TREATING SYSTEMIC SCLEROSIS” (Horizon Therapeutics Ireland DAC, priority 2020, published 2023)
“Also recorded” adds a separate entry of the source.

Key:
[1] = test system: bleomycin-induced skin fibrosis; assay: Bleomycin-induced skin fibrosis model, therapeutic protocol; assay type: in vivo, mouse; conditions: 50 mg/kg/day
Text: (§1) Two models of skin fibrosis were used to evaluate the effect of Compound 1 in comparison with imatinib mesylate, used as a reference.

[2] = test system: tight skin (Tsk-1) mice; assay: Tight skin (Tsk-1) mice skin fibrosis model; assay type: in vivo, mouse; conditions: 30 mg/kg/day; reference imatinib
Text: as §1

[3] = test system: hypertension-induced or nephrotoxicity-induced renal failure; assay: Models of hypertension-induced or nephrotoxicity-induced renal failure; conditions: in vivo
Text: (§2) All these pathological events can be observed in SSc patients at different levels and further support the use of Compound 1 in these patients.

[4] = test system: hypertension or diabetes-related cardiac hypertrophy, fibrosis and heart failure; assay: Models of hypertension or diabetes-related cardiac hypertrophy, fibrosis and heart failure; conditions: in vivo
Text: as §2

[5] = test system: models of thrombosis; assay: Acute models of coagulation and arterial thrombosis (rats); assay type: in vivo; conditions: two models in rats
Text: as §2

[6] = test system: models of thrombosis; assay: Model of thrombosis (mouse); assay type: in vivo; conditions: one model in mouse
Text: as §2

[7] = test system: presensitized mice treated with ovalbumin; assay: Broncho-alveolar lavage of presensitized mice treated with ovalbumin; conditions: mouse, in vivo
[8] = Phase 1 studies; assay type: in vivo; conditions: multiple Phase 1 studies
Text: See, Khanna, et al. (2007) Curr Rheumatol Rep. 9:151-7, which is incorporated herein by reference for all purposes.

[9] = test system: patients with early dcSSc; assay: Phase 2 8-week double-blind placebo-controlled study with 16-week open-label extension; assay type: in vivo, human
Text: The primary end point was safety during the double-blind phase of the trial. Exploratory end points included the identification of an LPA-induced gene signature in patients' skin.
Seventeen of 32 patients were randomly assigned to receive placebo and 15 to receive Compound 1. Thirty patients participated in the open-label extension study. […] At week 8, the reduction in MRSS was numerically greater in the Compound 1 group than in the placebo group (mean±SD change −3.57±4.18 versus −2.76±4.85; treatment effect −1.2 [95% confidence interval −4.37, 2.02]).

[10] = biological target: lysophosphatidic acid receptor 1 (LPAR1) (Homo sapiens, UniProt Q92633); conditions: cited from earlier work
[11] = 24-weeks of continuous treatment
[12] = Subjects switched from placebo to Compound 1 (16-week open label extension)
[13] = initial Compound 1 group, treatment up to 24 weeks, versus baseline

lysophosphatidic acid receptor 1 (LPAR1), sequence (Q92633 whole entry, species assumed): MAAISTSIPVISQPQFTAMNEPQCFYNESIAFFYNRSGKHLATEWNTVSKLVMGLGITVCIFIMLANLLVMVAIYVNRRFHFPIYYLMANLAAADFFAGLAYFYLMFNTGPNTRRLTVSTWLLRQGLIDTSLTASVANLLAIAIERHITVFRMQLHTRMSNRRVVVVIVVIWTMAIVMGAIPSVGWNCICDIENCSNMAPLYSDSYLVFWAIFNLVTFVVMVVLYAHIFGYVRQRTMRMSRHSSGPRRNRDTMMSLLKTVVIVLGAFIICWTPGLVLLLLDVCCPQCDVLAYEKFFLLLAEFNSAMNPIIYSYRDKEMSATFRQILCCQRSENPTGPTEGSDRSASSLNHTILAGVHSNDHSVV

Structure (SMILES): COc1ccc(C(=O)NC2(C(=O)O)Cc3ccccc3C2)cc1OCCc1cccc(C)c1 [Compound 1, 2-(4-methoxy-3-(3-methylphenethoxy)benzamido)-2,3-dihydro-1H-indene-2-carboxylic acid]
- collagen content in mouse skin ([1]; therapeutic protocol): able to reverse
- dermal thickness in mouse skin ([1]; therapeutic protocol): able to reverse
- myofibroblast differentiation in mouse skin ([1]; therapeutic protocol): able to reverse
- effect on these markers compared with imatinib ([1]; reference imatinib mesylate): comparable with the effects of imatinib
- progression of skin fibrosis [2]: inhibit the progression of skin fibrosis at a similar level than imatinib
- kidney fibrosis [3]: inhibits fibrosis
- kidney function [3]: improved kidney function
- arterial stiffness [4]: positive effect
- blood pressure [4]: mostly unchanged
- cardiac function and structure [4]: beneficial effect
- cardiac systolic and diastolic function [4]: improves
- heart fibrosis [4]: inhibits fibrosis
- antithrombotic activity [5]: moderate but significant antithrombotic activity; also recorded: demonstrated antithrombotic activity
- antithrombotic activity [6]: demonstrated antithrombotic activity
- accumulation of leukocytes and total inflammatory cells in broncho-alveolar lavage [7]: significant inhibitory effect
- inflammation in a model of lung injury with predominant Th2-type response [7]: reduces inflammation
- safety and tolerability [8]: safe and well tolerated
- Median Decrease in mRSS [9, 11]: −7.5
- Responder Rate [9, 11]: 78.6%
- LPA-related genes, biomarker analysis of skin biopsies ([9]; FIG. 1): reductions
- Modified Rodnan Skin Score (mRSS) ([9]; Phase 2 double-blind phase and open label extension): improvement
- Median Decrease in mRSS [9, 12]: −7.0
- Responder Rate [9, 12]: 69.2%
- most frequent adverse events ([9]; blinded phase): headache, diarrhea, nausea, and falling
- MRSS during the study ([9]; difference was not significant): improved
- tolerability in patients with dcSSc ([9]; in vivo): well tolerated
- disease biomarker COMP [9, 13]: numerical improvement versus baseline
- disease biomarker TSP1 [9, 13]: numerical improvement versus baseline
- safety profile ([9]; open-label extension): acceptable
- reduction of LPA-related genes in skin samples versus placebo ([9]; week 8): greater reduction
- change in MRSS (mean±SD) ([9]; week 8, double-blind phase): −3.57±4.18
- treatment effect on MRSS versus placebo ([9]; week 8, 95% confidence interval −4.37, 2.02): −1.2
- HAQ-DI ([9]; week 24): clinically significant improvement
- antagonist of lysophosphatidic acid receptor 1 (LPAR1) [10]: potent antagonist
